From ChEMBL document CHEMBL3745599, “The anti-tumor activity and mechanism of alkaloids from Aconitum szechenyianum Gay” (Bioorg Med Chem Lett, 2016)
Activity calls are given as the source filed them. The calls are words filed in the database; no cut-off is given here.

How the values were obtained:
[1] = target: T1, MAP kinase p38 (Homo sapiens) (UniProt O15264+Q15759+Q16539+P53778); experiment: Activation of p38 in human A549 cells assessed as downregulation of Bcl2 expression at 100 to 800 ug/ml by Western blot analysis; assay type: cell-based
[2] = Cytotoxicity against HEK293A cells assessed as cell viability at 1600 ug/ml after 44 hrs by MTT assay; assay type: cell-based; settings: human, hek293-a
[3] = target: T1, MAP kinase p38 (Homo sapiens); experiment: Activation of p38 in human A549 cells assessed as upregulation of TNF-R1 expression by Western blot analysis; assay type: cell-based
[4] = target: T1, MAP kinase p38 (Homo sapiens); experiment: Activation of p38 in human A549 cells assessed as upregulation of DR5 expression by Western blot analysis; assay type: cell-based
A549 [5] = experiment: Induction of apoptosis in human A549 cells assessed as change from fusiform shape to round shape cell at 100 to 800 ug/ml after 24 hrs by inverted phase contrast microscopic analysis; assay type: functional, cell-based
A549 [6] = experiment: Induction of apoptosis in human A549 cells assessed as appearance of loosely arranged cells at 100 to 800 ug/ml after 24 hrs by inverted phase contrast microscopic analysis; assay type: functional, cell-based
HepG2 = experiment: Antiproliferative activity against human HepG2 cells assessed as cell viability at 100 to 1600 ug/ml after 44 hrs by MTT assay; assay type: functional, cell-based
A549 [7] = experiment: Induction of apoptosis in human A549 cells assessed as condensed chromatin at 100 to 800 ug/ml after 24 hrs by Hoechst 33258 staining-based fluorescence microscopic analysis; assay type: functional, cell-based
[8] = target: T1, MAP kinase p38 (Homo sapiens); experiment: Activation of p38 in human A549 cells assessed as upregulation of Bax expression by Western blot analysis; assay type: cell-based
[9] = target: T1, MAP kinase p38 (Homo sapiens); experiment: Activation of p38 in human A549 cells assessed as downregulation of procaspase-3 level by Western blot analysis; assay type: cell-based
[10] = target: T1, MAP kinase p38 (Homo sapiens); experiment: Activation of p38 in human A549 cells assessed as downregulation of procaspase-8 level by Western blot analysis; assay type: cell-based
A549 [11] = experiment: Induction of apoptosis in human A549 cells assessed as nuclear fragmentation at 100 to 800 ug/ml after 24 hrs by Hoechst 33258 staining-based fluorescence microscopic analysis; assay type: functional, cell-based
[12] = target: T1, MAP kinase p38 (Homo sapiens); experiment: Activation of p38 in human A549 cells assessed as increase in Bax to Bcl2 ratio by Western blot analysis; assay type: cell-based
A549 [13] = experiment: Upregulation of p38 expression in human A549 cells by Western blot analysis; assay type: functional, cell-based
[14] = target: T1, MAP kinase p38 (Homo sapiens); experiment: Activation of p38 in human A549 cells assessed as upregulation of cleaved caspase-9 level by Western blot analysis; assay type: cell-based
A549 [15] = experiment: Induction of apoptosis in human A549 cells assessed as loss in mitochondrial membrane potential after 24 hrs by JC-1 dye-based fluorescence microscopic analysis; assay type: functional, cell-based
A549 [16] = experiment: Upregulation of phosphorylated p38 expression in human A549 cells by Western blot analysis; assay type: functional, cell-based
A549 [17] = experiment: Induction of apoptosis in human A549 cells assessed as change in cytoplasmic vacuole at 100 to 800 ug/ml after 24 hrs by inverted phase contrast microscopic analysis; assay type: functional, cell-based
A549 [18] = experiment: Antiproliferative activity against human A549 cells assessed as cell viability at 100 to 1600 ug/ml after 44 hrs by MTT assay; assay type: functional, cell-based
[19] = Cytotoxicity against HEK293A cells assessed as cell viability at 100 to 800 ug/ml after 44 hrs by MTT assay; assay type: cell-based; settings: human, hek293-a
A549 [20] = experiment: Induction of apoptosis in human A549 cells assessed as cell shrinkage at 100 to 800 ug/ml after 24 hrs by inverted phase contrast microscopic analysis; assay type: functional, cell-based
A549 [21] = experiment: Induction of apoptosis in human A549 cells after 24 hrs by inverted phase contrast microscopic analysis; assay type: functional, cell-based
HeLa = experiment: Antiproliferative activity against human HeLa cells assessed as cell viability at 100 to 1600 ug/ml after 44 hrs by MTT assay; assay type: functional, cell-based
[22] = target: T1, MAP kinase p38 (Homo sapiens); experiment: Activation of p38 in human A549 cells assessed as downregulation of cytochrome c expression in mitochondria by Western blot analysis
[23] = target: T1, MAP kinase p38 (Homo sapiens); experiment: Activation of p38 in human A549 cells assessed as upregulation of cytochrome c expression in cytosol by Western blot analysis; assay type: cell-based

| SMILES | Activity [1] | Activity [2] | Activity [3] | Activity [4] | Activity (A549 [5]) | Activity (A549 [6]) | Activity (HepG2) | Activity (A549 [7]) | Activity [8] | Activity [9] | Activity [10] | Activity (A549 [11]) | Activity [12] | Activity (A549 [13]) | Activity [14] | Activity (A549 [15]) | Activity (A549 [16]) | Activity (A549 [17]) | Activity (A549 [18]) | Activity [19] | also measured |
| --- | --- | --- | --- | --- | --- | --- | --- | --- | --- | --- | --- | --- | --- | --- | --- | --- | --- | --- | --- | --- | --- |
| CCN1C[C@]2(COC)[C@H](O)C[C@@H](OC)[C@@]34[C@@H]5C[C@@]6(O)[C@H](OC(=O)c7ccccc7)[C@@H]5[C@@](OC(C)=O)([C@@H]([C@H](OC)[C@H]23)[C@H]14)[C@@H](O)[C@@H]6OC | Active | Toxic | Dose-dependent effect | Dose-dependent effect | Active | Active | Active | Active | Dose-dependent effect | Dose-dependent effect | Dose-dependent effect | Active | Dose-dependent effect | Dose-dependent effect | Active | Dose-dependent effect | Dose-dependent effect | Active | Active | Non-toxic | Activity (A549 [20]): Active; Activity (A549 [21]): Dose-dependent effect; Activity (HeLa): Active; Activity [22]: Dose-dependent effect; Activity [23]: Dose-dependent effect |
| CCN1C[C@]2(COC)CC[C@H](OC)[C@]34C1[C@H]([C@H](OC)[C@H]23)[C@]1(OC(C)=O)[C@H]2[C@@H](OC(=O)c3ccccc3)[C@](O)(C[C@H]24)[C@@H](OC)[C@@H]1O | Active | Toxic | Dose-dependent effect | Dose-dependent effect | Active | Active | Active | Active | Dose-dependent effect | Dose-dependent effect | Dose-dependent effect | Active | Dose-dependent effect | Dose-dependent effect | Active | Dose-dependent effect | Dose-dependent effect | Active | Active | Non-toxic | Activity (A549 [20]): Active; Activity (A549 [21]): Dose-dependent effect; Activity (HeLa): Active; Activity [22]: Dose-dependent effect; Activity [23]: Dose-dependent effect |
| C=C1[C@H]2C[C@@]3([C@@H]1O)[C@@H](CC2=O)[C@@]12C4[C@@H]3C[C@@H]1[C@@](C)(CC[C@@H]2O)CN4CC | Active | Toxic | Dose-dependent effect | Dose-dependent effect | Active | Active | Active | Active | Dose-dependent effect | Dose-dependent effect | Dose-dependent effect | Active | Dose-dependent effect | Dose-dependent effect | Active | Dose-dependent effect | Dose-dependent effect | Active | Active | Non-toxic | Activity (A549 [20]): Active; Activity (A549 [21]): Dose-dependent effect; Activity (HeLa): Active; Activity [22]: Dose-dependent effect; Activity [23]: Dose-dependent effect |
| CCN1C[C@@]2(COC)[C@H]3[C@@H](OC)[C@H]4C1[C@]3([C@@H](OC)C[C@H]2OC(C)=O)[C@@H]1C[C@@]2(O)[C@H](OC(=O)c3ccccc3)[C@@H]1[C@]4(OC(C)=O)[C@@H](O)[C@@H]2OC | Active | Toxic | Dose-dependent effect | Dose-dependent effect | Active | Active | Active | Active | Dose-dependent effect | Dose-dependent effect | Dose-dependent effect | Active | Dose-dependent effect | Dose-dependent effect | Active | Dose-dependent effect | Dose-dependent effect | Active | Active | Non-toxic | Activity (A549 [20]): Active; Activity (A549 [21]): Dose-dependent effect; Activity (HeLa): Active; Activity [22]: Dose-dependent effect; Activity [23]: Dose-dependent effect |
